Results from US10086085B2, “Bifunctional cytotoxic agents” (priority 2014, dated 2018).

Assays:
[1] = system: N87 (human gastric carcinoma derived from metastatic liver site); experiment: Cytotoxicity assay for payloads (MTS), N87 cells; assay type: cell-based; details: Homo sapiens, 96 h; N87 cells, incubated with compounds for four days, MTS absorbance 490 nm; read-out: N87 IC50
Method: (§1) Cancer cell lines were obtained from ATCC (Manassas, Va.). N87 (human gastric carcinoma derived from metastatic liver site). HL60 (leukemia), A375 (melanoma) and HUVEC (human umbilical vein endothelial cells). were grown in RPMI 1640 media. All media were supplemented with 10% fetal bovine serum, 1% sodium pyruvate, and 1% L-glutamine (Invitrogen, Grand Island, N.Y.). Human umbilical vein endothelial cells (HUVEC) were obtained from Lonza (Allendale, N.J.) and maintained in EGM2 media supplemented with EGM-2 SingleQuots (Lonza # CC-4176). All cells were maintained in a humidified incubator (37° C., 5% CO2).
(§2) Cells in 100 μl medium were cultured in a 96-well plate. Cancer cell lines treated with the indicated compounds by adding 50 μl of 3× stocks in duplicate at 10 concentrations. Cells were incubated with compounds for four days, then 30 μl of CellTiter® 96 AQueous One MTS Solution (Promega Cat # G3582) was added to the cells, incubated 1.5 hr at 37° C., then absorbance measured at 490 nm on a Victor plate reader (Perkin Elmer, Waltham, Mass.). Relative cell viability was determined as a percentage of untreated control wells. IC50 values were calculated using four parameter logistic model #203 with XLfit v4.2 (IDBS, Guildford, Surry, UK).

[2] = system: HL60 (leukemia); experiment: Cytotoxicity assay for payloads (MTS), HL-60 cells; assay type: cell-based; details: Homo sapiens, 96 h, incubated with compounds for four days, MTS absorbance 490 nm
Method: as §1, §2

Structure (SMILES)	IC50 [1] [nM]	IC50 [2] [nM]
Cc1c[nH]c2c1[C@@]13C[C@@H]1CN(C(=O)C14CC(C(=O)N5C[C@H]6C[C@@]67C5=CC(=O)c5[nH]cc(C)c57)(C1)C4)C3=CC2=O [Compound 135, (3bR,4aS,3b′R,4a′S)-6,6′-(bicyclo[1.1.1]pentane-1,3-diyldicarbonyl)bis(3-methyl-4,4a,5,6-tetrahydrocyclopropa[c]pyrrolo[3,2-e]indol-8(1H)-one)]	0.019	0.005
O=C1C=C2N(C(=O)c3ccc(C(=O)N4C[C@H]5C[C@@]56C4=CC(=O)c4ccccc46)s3)C[C@H]3C[C@@]23c2ccccc21 [Compound 136, (1aS,9bR,1a′S,9b′R)-3,3′-(thiene-2,5-diyldicarbonyl)bis(1,1a,2,3-tetrahydro-5H-benzo[e]cyclopropa[c]indol-5-one)]	0.003	0.005
COC(=O)[C@H]1O[C@@H](Oc2cc3c(c4ccccc24)[C@H](CCl)CN3C(=O)C23CC(C(=O)N4C[C@@H](CCl)c5c4cc(O)c4ccccc54)(C2)C3)[C@H](OC(C)=O)[C@@H](OC(C)=O)[C@@H]1OC(C)=O [Compound 141, (1S)-1-(chloromethyl)-3-[(3-{[(1S)-1-(chloromethyl)-5-hydroxy-1,2-dihydro-3H-benzo[e]indol-3-yl]carbonyl}bicyclo[1.1.1]pent-1-yl)carbonyl]-2,3-dihydro-1H-benzo[e]indol-5-yl methyl 2,3,4-tri-O-acetyl-beta-D-glucopyranosiduronate]	12.7	0.361
CC(=O)Oc1cc2c(c3ccccc13)[C@H](CCl)CN2C(=O)c1sc(C(=O)N2C[C@@H](CCl)c3c2cc(OC(C)=O)c2ccccc32)c2c1OCCCO2 [Compound 142, 3,4-dihydro-2H-thieno[3,4-b][1,4]dioxepine-6,8-diylbis[carbonyl(1S)-1-(chloromethyl)-1,2-dihydro-3H-benzo[e]indole-3,5-diyl] diacetate]	≥ 100	≥ 10
COc1c(C(=O)N2C[C@@H](CCl)c3c2cc(OC(C)=O)c2ccccc32)sc(C(=O)N2C[C@@H](CCl)c3c2cc(OC(C)=O)c2ccccc32)c1OC [Compound 143, (3,4-dimethoxythiene-2,5-diyl)bis[carbonyl(1S)-1-(chloromethyl)-1,2-dihydro-3H-benzo[e]indole-3,5-diyl] diacetate]	≥ 100	≥ 10
CC(=O)Oc1cc2c(c3ccccc13)[C@H](CCl)CN2C(=O)c1nnc(C(=O)N2C[C@@H](CCl)c3c2cc(OC(C)=O)c2ccccc32)s1 [Compound 144, 1,3,4-thiadiazole-2,5-diylbis[carbonyl(1S)-1-(chloromethyl)-1,2-dihydro-3H-benzo[e]indole-3,5-diyl] diacetate]	> 10	3
O=C(c1ccc(C(=O)N2C[C@@H](CCl)c3c2cc(O[C@@H]2O[C@H](CO)[C@H](O)[C@H](O)[C@H]2O)c2ccccc32)s1)N1C[C@@H](CCl)c2c1cc(O)c1ccccc21 [Compound 145, ((S)-1-(chloromethyl)-5-(((2S,3R,4S,5R,6R)-3,4,5-trihydroxy-6-(hydroxymethyl)tetrahydro-2H-pyran-2-yl)oxy)-1,2-dihydro-3H-benzo[e]indol-3-yl)(5-((S)-1-(chloromethyl)-5-hydroxy-2,3-dihydro-1H-benzo[e]indole-3-carbonyl)thiophen-2-yl)methanone]	0.13	0.051
Cc1c[nH]c2c(O)cc3c(c12)[C@H](CCl)CN3C(=O)C12CC(C(=O)N3C[C@@H](CCl)c4c3cc(O)c3[nH]cc(C)c43)(C1)C2 [Compound 147, bicyclo[1.1.1]pentane-1,3-diylbis{[(1S)-1-(chloromethyl)-5-hydroxy-8-methyl-1,6-dihydropyrrolo[3,2-e]indol-3(2H)-yl]methanone}]	0.017	0.003
CC(=O)Oc1cc2c(c3ccccc13)[C@H](CCl)CN2C(=O)c1cc2cc(NC(=O)Nc3ccc4[nH]c(C(=O)N5C[C@@H](CCl)c6c5cc(OC(C)=O)c5ccccc65)cc4c3)ccc2[nH]1 [Compound 149, (1S)-3-[(5-{[(2-{[(1S)-5-(acetyloxy)-1-(chloromethyl)-1,2-dihydro-3H-benzo[e]indol-3-yl]carbonyl}-1H-indol-5-yl)carbamoyl]amino}-1H-indol-2-yl)carbonyl]-1-(chloromethyl)-1,2-dihydro-3H-benzo[e]indol-5-yl acetate]	0.132	0.007
CC(=O)Oc1cc2c(c3ccccc13)[C@H](CCl)CN2C(=O)C12CC(C(=O)N3C[C@@H](CCl)c4c3cc(OC(C)=O)c3ccccc43)(C1)C2 [Compound 152, bicyclo[1.1.1]pentane-1,3-diylbis[carbonyl(1S)-1-(chloromethyl)-1,2-dihydro-3H-benzo[e]indole-3,5-diyl] diacetate]	0.278	0.008
Cc1c[nH]c2c(O)cc3c(c12)[C@H](CCl)CN3C(=O)C12CC(C(=O)N3C[C@@H](CCl)c4c3cc(O)c3ccccc43)(C1)C2 [Compound 154, [(1S)-1-(chloromethyl)-5-hydroxy-1,2-dihydro-3H-benzo[e]indol-3-yl](3-{[(1S)-1-(chloromethyl)-5-hydroxy-8-methyl-1,6-dihydropyrrolo[3,2-e]indol-3(2H)-yl]carbonyl}bicyclo[1.1.1]pent-1-yl)methanone]	0.026	0.003
CC(=O)Oc1cc2c(c3ccccc13)[C@H](CCl)CN2C(=O)CC1(CC(=O)N2C[C@@H](CCl)c3c2cc(OC(C)=O)c2ccccc32)CCC1 [Compound 156, cyclobutane-1,1-diylbis[(1-oxoethane-2,1-diyl)(1S)-1-(chloromethyl)-1,2-dihydro-3H-benzo[e]indole-3,5-diyl] diacetate]	≥ 10	61.1
CC(=O)Oc1cc2c(c3ccccc13)[C@H](CCl)CN2C(=O)CC1(CC(=O)N2C[C@@H](CCl)c3c2cc(OC(C)=O)c2ccccc32)CCCC1 [Compound 157, cyclopentane-1,1-diylbis[(1-oxoethane-2,1-diyl)(1S)-1-(chloromethyl)-1,2-dihydro-3H-benzo[e]indole-3,5-diyl] diacetate]	≥ 10	77.4
CC(=O)Oc1cc2c(c3ccccc13)[C@H](CCl)CN2C(=O)CC12CC(CC(=O)N3C[C@@H](CCl)c4c3cc(OC(C)=O)c3ccccc43)(C1)C2 [Compound 158, bicyclo[1.1.1]pentane-1,3-diylbis[(1-oxoethane-2,1-diyl)(1S)-1-(chloromethyl)-1,2-dihydro-3H-benzo[e]indole-3,5-diyl] diacetate]	14.3	4.91
CC(=O)Oc1cc2c(c3ccccc13)[C@H](CCl)CN2C(=O)C12CCC(C(=O)N3C[C@@H](CCl)c4c3cc(OC(C)=O)c3ccccc43)(CC1)CC2 [Compound 159, bicyclo[2.2.2]octane-1,4-diylbis[carbonyl(1S)-1-(chloromethyl)-1,2-dihydro-3H-benzo[e]indole-3,5-diyl] diacetate]	2.39	0.045
Nc1cc2c(c3ccccc13)[C@H](CCl)CN2C(=O)C12CC(C(=O)N3C[C@@H](CCl)c4c3cc(OP(=O)(O)O)c3ccccc43)(C1)C2 [Compound 161, (1S)-3-[(3-{[(1S)-5-amino-1-(chloromethyl)-1,2-dihydro-3H-benzo[e]indol-3-yl]carbonyl}bicyclo[1.1.1]pent-1-yl)carbonyl]-1-(chloromethyl)-2,3-dihydro-1H-benzo[e]indol-5-yl dihydrogen phosphate]	≥ 10	27.2
